In ChEMBL document CHEMBL1201862, “PubChem BioAssay data set” (2004):
Calls of active or inactive are those of the source.

How the values were obtained:
[1] = blockers of bursicon-stimulated LGR2 cAMP reporter – cell-based, HEK293, CRE-luciferase reporter, cherry pick, set 2, dose response (AID 743343); assay type: functional;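 also: transfected cells were stimulated with diluted bursicon conditioned medium after compound addition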
[2] = toxicity toward HepG2 liver cells – cell-based, plate reader, cherry-pick, antagonist series, cytotoxicity control, dose response (AID 743416); assay type: functional
[3] = blockers of HIV-1 ZM109 envelope-driven cell-cell fusion – HeLa effector, CEM target cells, luciferase, cherry-pick, dose response (AID 652058); assay type: functional, cell-based;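 also: luciferase signal from HIV-1 Env mediated cell-cell fusion of effector and target cells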
[4] = target: Paired box protein Pax-8 (Homo sapiens, UniProt Q06710); test: PAX8 transcriptional activity inhibition in RMG-I – RMG-I cells, luciferase, cherry-pick, dose response (AID 687027); assay type: functional, cell-based;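 also: luciferase reporter driven by Pax8 target thyroperoxidase promoter measured by SteadyGlo luminescence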
Paired box protein Pax-8, sequence (Q06710 whole entry): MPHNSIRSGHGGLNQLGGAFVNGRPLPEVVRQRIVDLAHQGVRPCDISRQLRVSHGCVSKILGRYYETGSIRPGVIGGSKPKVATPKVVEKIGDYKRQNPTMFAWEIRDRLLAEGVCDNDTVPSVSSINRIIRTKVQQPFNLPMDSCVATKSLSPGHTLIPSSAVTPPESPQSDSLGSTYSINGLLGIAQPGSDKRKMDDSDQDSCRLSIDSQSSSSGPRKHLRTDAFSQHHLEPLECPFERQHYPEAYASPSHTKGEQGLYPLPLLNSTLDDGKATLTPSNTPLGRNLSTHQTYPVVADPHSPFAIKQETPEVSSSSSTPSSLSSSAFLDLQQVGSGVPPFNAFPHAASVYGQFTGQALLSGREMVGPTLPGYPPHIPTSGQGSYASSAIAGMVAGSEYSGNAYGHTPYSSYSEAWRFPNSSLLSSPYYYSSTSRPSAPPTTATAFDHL

[5] = A549 cell cytotoxicity, dose response, cytotoxicity control, plate reader, cherry-pick, antagonist series (AID 743412); assay type: functional, cell-based
[6] = blockers of HIV-1 envelope-mediated cell-cell fusion – cherry-pick, dose response (AID 652057); assay type: functional, cell-based
[7] = reduction of Shn3 3'UTR-driven luciferase in osteoblasts – cell-based, Clone20 osteoblasts, firefly luciferase, cherry-picked, dose response (AID 624132); assay type: functional;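 also: firefly luciferase luminescence from reporter carrying the Shn3 3'UTR in osteoblasts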
[8] = HIV-1 AD8 envelope cell-cell fusion blockers – cherry-pick, dose response (AID 652062); assay type: functional, cell-based;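 also: luciferase signal from cell-cell fusion driven by HIV-1 clade B AD8 Env; potency is for inhibitors of fusion seen as a drop in luminescence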
[9] = loss of viability in HepG2 cells – cell-based, CellTiter-Glo, cherry-picked, cytotoxicity control for Shn3 inhibitor project, dose response (AID 624134); assay type: functional
[10] = viability loss in CEM21 cells – cell-based, CellTiter-Glo luminescence, cherry-picked, cytotoxicity control for viral fusion inhibitor project, dose response (AID 652042); assay type: functional;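 also: potency for signal decrease meaning cytotoxicity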
[11] = off-target signal loss in HeLa-CEM21 co-culture – HeLa F-luc CTL cells, cherry-picked, counter-screen for HIV-1 Env fusion inhibitor project, dose response (AID 652040); assay type: functional, cell-based;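 also: potency for signal decrease marking cytotoxic or nonspecific inhibition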
[12] = blockade of melanocortin 4 receptor signaling – cell-based, plate reader, cherry pick, counter-screen for LGR2 antagonist project, dose response (AID 743444); assay type: functional;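 also: transfected HEK 293 cells stimulated with alpha-MSH peptide; potency of inhibitors of the alpha-MSH evoked signal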
[13] = system: HeLa; test: viability loss in HeLa cells – cell-based, ATP luminescence, cherry-pick samples, cytotoxicity control, dose response (AID 687004); assay type: functional; conditions: Homo sapiens
[14] = Trypanosoma cruzi growth suppression in host cells – NIH3T3 host cells, beta-gal luminescence, confirmation (AID 2044); assay type: functional, cell-based;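 also: intracellular parasites grown in NIH/3T3 mouse fibroblasts as host cells; luminescent beta-galactosidase reporter signal from transgenic T. cruzi replicating inside host cells; inhibitors lower the luminescence signal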
[15] = NIH3T3 cell viability loss – ATP luminescence, mouse fibroblasts, counter-screen, dose response (AID 2010); assay type: functional, cell-based; conditions: NIH3T3;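 also: cells exposed to compound for about 90 hours before reading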
[16] = target: Fructose-bisphosphate aldolase (Mycobacterium tuberculosis, UniProt P9WQA3); test: Fluorescence-based biochemical high throughput dose response assay for inhibitors of the fructose-bisphosphate aldolase (FBA) of M. tuberculosis.; assay type: functional
Fructose-bisphosphate aldolase, sequence (P9WQA3 whole entry): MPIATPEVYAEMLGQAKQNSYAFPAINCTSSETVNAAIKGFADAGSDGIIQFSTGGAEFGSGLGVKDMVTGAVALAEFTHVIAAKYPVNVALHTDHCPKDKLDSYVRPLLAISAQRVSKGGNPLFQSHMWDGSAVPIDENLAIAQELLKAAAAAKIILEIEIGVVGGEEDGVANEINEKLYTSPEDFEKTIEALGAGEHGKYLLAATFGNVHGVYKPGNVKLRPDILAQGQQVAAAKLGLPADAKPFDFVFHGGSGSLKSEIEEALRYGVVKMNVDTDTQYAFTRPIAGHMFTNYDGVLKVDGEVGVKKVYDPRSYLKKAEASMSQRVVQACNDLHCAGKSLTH

[17] = viability loss in HepG2 hepatoma cells – cell-based, ATP luminescence, cherry-pick, activator set 2, cytotoxicity control, dose response (AID 1053143); assay type: functional
[18] = general mammalian cell viability loss – activator set, cherry-pick, cytotoxicity control for miR-122 modulator project, dose response (AID 720690); assay type: functional, cell-based;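 also: HEK293T human cells scored for general mammalian cytotoxicity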
[19] = activation of miR-122 Renilla sensor silencing – cell-based, Huh7 psiCHECK-miR122, Renilla luciferase, cherry-picked, dose response (AID 651956); assay type: functional;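 also: huh7 hepatoma cells stably carrying a psiCHECK-2 miR-122 sensor plasmid; renilla luciferase signal reporting endogenous miR-122 activity after 48 h compound exposure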
[20] = general mammalian cell viability loss – inhibitor set, cherry-pick, set 2, cytotoxicity control for miR-122 modulator project, dose response (AID 720697); assay type: functional, cell-based
[21] = system: H4; test: Luminescence Cell-Based Dose Response HTS to Identify Activators of 5'UTR Stem-Loop Driven Prion Protein mRNA Translation in H4 Neuroglioblastoma Cells. [Related pubchem assays: 1829 (Project Summary), 1814 (Primary HTS)]; assay type: functional; conditions: Homo sapiens
[22] = Luminescence Cell-Based Dose Response HTS to Identify Activators of Luciferase Translation or Activity in H4 […] Cells. [Related pubchem assays: 1829 (Project Summary), 1814 (Primary HTS)]; assay type: functional
[23] = Luminescence Cell-Based Dose Confirmation HTS to Identify Activators of 5'UTR Stem-Loop Driven Alpha-Synuclein mRNA Translation in H4 Neuroglioblastoma Cells. [Related pubchem assays: 1829 (Project Summary), 1814 (Primary HTS)]; assay type: functional
[24] = target: SWI/SNF-related matrix-associated actin-dependent regulator of chromatin subfamily A member 2 (Homo sapiens, UniProt P51531); test: Luminescence-based cell-based high throughput dose response assay to identify activators of the function of SWI/SNF related, matrix associated, actin dependent regulator of chromatin, subfamily a, member 2 (SMARCA2, BRM).; assay type: functional
SWI/SNF-related matrix-associated actin-dependent regulator of chromatin subfamily A member 2, sequence (P51531 whole entry): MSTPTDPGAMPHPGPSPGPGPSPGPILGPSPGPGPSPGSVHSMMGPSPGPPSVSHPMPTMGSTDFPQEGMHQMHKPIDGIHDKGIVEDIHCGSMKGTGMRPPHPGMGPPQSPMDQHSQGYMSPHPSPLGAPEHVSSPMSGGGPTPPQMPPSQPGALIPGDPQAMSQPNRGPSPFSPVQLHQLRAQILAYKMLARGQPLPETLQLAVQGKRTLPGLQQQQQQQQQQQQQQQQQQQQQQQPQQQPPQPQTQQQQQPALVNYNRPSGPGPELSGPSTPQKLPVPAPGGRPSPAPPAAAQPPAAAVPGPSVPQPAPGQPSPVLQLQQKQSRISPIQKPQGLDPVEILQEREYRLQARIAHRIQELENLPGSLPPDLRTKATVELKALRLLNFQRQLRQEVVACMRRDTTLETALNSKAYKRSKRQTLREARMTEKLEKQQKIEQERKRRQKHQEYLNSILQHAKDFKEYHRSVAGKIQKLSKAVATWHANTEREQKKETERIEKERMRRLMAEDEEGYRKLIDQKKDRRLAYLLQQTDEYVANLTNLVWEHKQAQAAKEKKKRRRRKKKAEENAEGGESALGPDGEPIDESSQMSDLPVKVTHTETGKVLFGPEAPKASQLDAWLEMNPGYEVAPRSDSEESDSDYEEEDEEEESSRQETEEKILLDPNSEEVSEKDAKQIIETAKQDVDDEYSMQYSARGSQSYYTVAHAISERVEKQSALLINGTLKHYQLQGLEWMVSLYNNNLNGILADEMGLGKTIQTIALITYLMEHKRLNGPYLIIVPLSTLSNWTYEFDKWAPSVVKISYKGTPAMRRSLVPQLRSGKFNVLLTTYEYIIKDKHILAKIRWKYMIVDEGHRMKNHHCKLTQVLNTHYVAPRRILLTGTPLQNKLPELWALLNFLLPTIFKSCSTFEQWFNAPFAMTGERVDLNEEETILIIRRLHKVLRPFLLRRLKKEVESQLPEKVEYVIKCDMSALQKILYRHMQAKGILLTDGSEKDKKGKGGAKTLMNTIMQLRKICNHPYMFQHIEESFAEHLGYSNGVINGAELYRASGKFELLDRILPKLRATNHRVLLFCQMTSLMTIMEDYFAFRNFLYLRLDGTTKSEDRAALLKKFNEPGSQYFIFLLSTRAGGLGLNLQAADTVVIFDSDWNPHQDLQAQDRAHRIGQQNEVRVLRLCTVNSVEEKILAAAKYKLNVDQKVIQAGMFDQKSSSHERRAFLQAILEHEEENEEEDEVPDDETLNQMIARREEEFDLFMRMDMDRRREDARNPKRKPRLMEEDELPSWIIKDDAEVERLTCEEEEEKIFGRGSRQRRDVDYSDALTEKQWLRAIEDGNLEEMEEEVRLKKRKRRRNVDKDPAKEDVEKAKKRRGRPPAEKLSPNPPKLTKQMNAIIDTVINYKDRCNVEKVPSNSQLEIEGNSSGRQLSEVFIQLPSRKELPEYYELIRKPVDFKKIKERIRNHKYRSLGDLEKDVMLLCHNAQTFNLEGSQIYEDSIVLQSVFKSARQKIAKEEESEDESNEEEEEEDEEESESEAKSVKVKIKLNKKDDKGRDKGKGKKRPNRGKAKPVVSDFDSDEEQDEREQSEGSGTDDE

[25] = Counterscreen for activators of the function of SWI/SNF related, matrix associated, actin dependent regulator of chromatin, subfamily a, member 2 (SMARCA2, BRM): Luminescence-based cell-based high throughput dose response assay to identify non-selective compounds using the VP16 reporter assay.; assay type: functional
[26] = target: Albumin (Bos taurus, UniProt P02769); test: Counterscreen for inhibitors of T-cell receptor (TCR)-CD3 interaction: Fluorescence-based biochemical high throughput dose response assay to identify inhibitors of T-cell receptor (TCR)-CD3 interaction using a TAMRA-labeled BSA probe.; assay type: functional
Albumin, sequence (P02769 whole entry): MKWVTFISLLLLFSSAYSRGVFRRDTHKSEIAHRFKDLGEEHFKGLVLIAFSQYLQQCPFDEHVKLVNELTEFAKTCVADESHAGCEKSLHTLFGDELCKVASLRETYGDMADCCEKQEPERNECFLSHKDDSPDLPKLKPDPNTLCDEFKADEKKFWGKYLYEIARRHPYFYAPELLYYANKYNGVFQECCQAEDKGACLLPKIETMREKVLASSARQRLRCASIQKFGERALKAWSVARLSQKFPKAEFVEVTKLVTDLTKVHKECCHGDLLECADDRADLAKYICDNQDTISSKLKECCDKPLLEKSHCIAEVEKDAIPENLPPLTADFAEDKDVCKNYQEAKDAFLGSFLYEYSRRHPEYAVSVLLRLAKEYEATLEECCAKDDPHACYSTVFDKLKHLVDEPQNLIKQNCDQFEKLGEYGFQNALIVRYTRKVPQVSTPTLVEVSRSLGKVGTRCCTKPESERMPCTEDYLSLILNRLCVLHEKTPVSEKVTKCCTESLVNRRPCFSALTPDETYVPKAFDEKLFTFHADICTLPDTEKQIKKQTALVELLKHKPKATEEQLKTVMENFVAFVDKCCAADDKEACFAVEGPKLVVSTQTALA

[27] = target: T1, SUMO-activating enzyme (Homo sapiens, UniProt Q9UBT2); test: blockers of UBC9-mediated SUMO conjugation – biochemical, AlphaScreen, SUMOylation inhibitor project, confirmation (AID 2018); assay type: functional
T1 sequence (Q9UBE0 whole entry): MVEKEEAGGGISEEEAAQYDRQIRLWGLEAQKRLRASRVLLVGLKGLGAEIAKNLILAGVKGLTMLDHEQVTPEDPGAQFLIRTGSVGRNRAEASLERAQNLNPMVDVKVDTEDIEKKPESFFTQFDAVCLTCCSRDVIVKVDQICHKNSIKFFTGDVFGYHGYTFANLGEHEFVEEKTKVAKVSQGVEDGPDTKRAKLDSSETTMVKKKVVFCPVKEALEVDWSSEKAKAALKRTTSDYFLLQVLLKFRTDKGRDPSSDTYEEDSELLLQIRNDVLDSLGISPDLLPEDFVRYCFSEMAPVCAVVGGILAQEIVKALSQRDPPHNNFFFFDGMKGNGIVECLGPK
T1 sequence (Q9UBT2 whole entry): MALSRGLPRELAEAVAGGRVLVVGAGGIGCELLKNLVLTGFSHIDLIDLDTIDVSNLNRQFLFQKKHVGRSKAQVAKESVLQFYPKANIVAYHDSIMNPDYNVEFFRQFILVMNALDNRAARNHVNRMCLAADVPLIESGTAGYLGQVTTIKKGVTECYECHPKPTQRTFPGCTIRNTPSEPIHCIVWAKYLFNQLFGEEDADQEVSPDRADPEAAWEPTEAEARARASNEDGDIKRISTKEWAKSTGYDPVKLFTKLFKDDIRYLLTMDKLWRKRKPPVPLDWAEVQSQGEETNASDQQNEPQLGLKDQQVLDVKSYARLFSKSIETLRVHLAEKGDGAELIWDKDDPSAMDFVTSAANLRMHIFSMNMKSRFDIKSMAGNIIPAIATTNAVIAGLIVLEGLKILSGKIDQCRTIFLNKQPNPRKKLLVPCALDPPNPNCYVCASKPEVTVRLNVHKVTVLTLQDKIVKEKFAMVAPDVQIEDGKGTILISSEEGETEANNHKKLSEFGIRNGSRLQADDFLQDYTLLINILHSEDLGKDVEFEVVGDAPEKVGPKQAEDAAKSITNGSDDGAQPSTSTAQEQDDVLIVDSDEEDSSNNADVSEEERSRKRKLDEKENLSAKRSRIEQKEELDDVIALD

[28] = target: T1, SUMO-activating enzyme; test: blockers of SAE1/SAE2–UBC9 SUMO transfer – biochemical, HTRF, uHTS, primary screen (AID 2006); assay type: protein-complex assay

With `O=C(Nc1cccc(-c2ccc(N3CCCCC3)nn2)c1)C(F)(F)F` the AC50 [1] was 2.61 µM (active), the AC50 [2] was 43.6 µM (active) and the AC50 [3] was 34.1 µM (active). The AC50 [4] was 3.04 µM (active), the AC50 [5] was 30.2 µM (active) and the AC50 [6] was 3.47 µM (active). For the same compound, the AC50 [7] was 9.07 µM (active), the AC50 [8] was 6.31 µM (active) and the AC50 [9] was 33.1 µM (active). For the same compound, the AC50 [10] was 34.1 µM (active), the AC50 [11] was 9.6 µM (active) and the AC50 [12] was 1.41 µM (active).
For `CCOc1ccc(C(=O)NC(=S)Nc2ccccc2N2CCC(C)CC2)cc1[N+](=O)[O-]`, the AC50 [13] was > 52 µM (inactive), the EC50 [14] was 1.32 µM (active) and the EC50 [15] was > 60 µM (not active).
In the case of `Cc1ccc(-c2nc3ncccc3o2)cc1NC(=O)C(C)C`, the IC50 [16] is reported as 1.5 µM (active).
For `O=C(NCCOc1ccccc1F)C1CC(=O)N(Cc2ccccc2)C1` (centres undefined), the AC50 [17] was > 52 µM (inactive).
In the case of `C[C@@H]1CN([C@@H](C)CO)C(=O)c2cc(NC(=O)Nc3cccc4ccccc34)ccc2O[C@@H](C)CCCCO[C@@H]1CN(C)CC1CCCCC1`, the AC50 [18] is reported as 30.5 µM (active), the AC50 [19] is reported as 11.6 µM (active) and the AC50 [20] is reported as 6.05 µM (active).
For `CC(=O)Nc1ccc2c(c1)C(=O)N(C)[C@@H]1CC[C@H](CC(=O)NC3CCCCC3)O[C@H]1CO2`, the AC50 [20] was 0.457 µM (active).
In the case of `CC(C)c1ccc(/C=N/NC(=O)c2c(Cl)cnn2C)cc1`, the EC50 [21] is reported as 27.5 µM (active), the EC50 [22] is reported as 0.251 µM (active) and the EC50 [23] is reported as 9.9 µM (active). For the same compound, the EC50 [24] was > 91.2 µM (inactive) and the EC50 [25] was > 91.2 µM (inactive).
For `Cc1c(NC(=S)N/N=C/c2cc([N+](=O)[O-])ccc2O)c(=O)n(-c2ccccc2)n1C`, the IC50 [26] was > 94.1 µM (inactive), the IC50 [27] was 1.64 µM (active) and the IC50 [28] was 11.4 µM (active).
